Experimental data reported in US8507010B2, “Compositions comprising quinazoline derivatives” (Shanghai Allist Pharmaceuticals, Inc., priority 2008, dated 2013).
Blank lines part the entries; values can stand above or below the molecule they belong to.

Assays:
[1] = Study of light stability; assay type: physicochemical; conditions: p-toluenesulfonate; for light stability (in words): illumination 45001×±5001× for 1 month; for Purity (%): illumination 45001×±5001×
Description: The purity of the crystalline form A was detected at day 0, day 10 and day 30, thereby deducing light stability of crystalline form A. The light stability of each of crystalline forms B and C is obtained by the same approach.

[2] = Study of stability at high temperature (60° C.); assay type: physicochemical; conditions: p-toluenesulfonate; for Purity (%): 60° C.; for thermal stability (in words): stored at 60° C. for 1 month
[3] = in vivo; conditions: male, SD, rat
Method: Intragastric administration (ig): 16 healthy SD rats (Shanghai Super-B&K Laboratory Animal Corp. Ltd., grade SPF), male, weighted 200-250 g, randomly divided into four groups, were each administered intragastrically with a drug: the compound prepared according to Example 1 (21.68 mg/kg), crystalline form A, crystalline form B, or crystalline form C (30 mg/kg) of p-toluenesulfonate of said compound. The blood samples were collected at 0.5 h, 1.0 h, 1.5 h, 2.0 h, 3.0 h, 5.0 h, 7.0 h, 9.0 h, 12 h, and 24 h after administration, which were then isolated to prepare the plasma. The concentrations of the drugs in the plasma were determined by means of liquid phase chromatography/tandem mass spectrometer (Agilent 1200LC/6410B), and the concentration-time curve was obtained.

[4] = Study of hygroscopicity (92.5% humidity); assay type: physicochemical; conditions: p-toluenesulfonate; for stability in highly humid surroundings (in words): 92.5% humidity for 1 month; for Purity (%): 92.5% humidity
[5] = tested on: human ovarian cancer SKOV-3; experiment: Tumor-inhibitory effect on human ovarian cancer SKOV-3 grafted to a BALB/cA nude mouse; assay type: in vivo; conditions: for inhibitory effect on the tumor (in words): SKOV-3 grafted to BALB/cA nude mouse, high expression of erbB-2, p-toluenesulfonate; for RTV: RTV=Vt/V0; for Volume of tumor (mm^3) V0: prior to the administration
Method: A SKOV-3 tumor tissue in vigorous growth period was selected and incised into uniform pieces with the size of about 1.5 mm^3, which was grafted subcutaneously to the right armpit of a BALB/cA nude mouse (Shanghai Institute of Materia Medica, Chinese Academy of Sciences, grade SPF) with a trocar under sterile conditions. The diameters of the grafted tumors on the nude mouse were measured with a vernier caliper. The animals were grouped randomly when the tumors grew to a size of 80 to 100 mm^3. The tested animal groups were intragastrically administered through mouth as mentioned above once a day for 3 consecutive weeks. The positive control drug MMC (Mitomycin) was intravenously administered once on the first day with a dose of 5 mg/kg (0.9% sterile sodium chloride solution). The negative control group was administered with 0.5% CMC-Na (Carboxymethyl Cellulose-Sodium) with a dose of 0.2 mL/per mouse. The long axis (a) and the short axis (b) of the tumors were measured twice every week and the nude mice were weighed at the same time. According to the formula V=ab^2/2, the volume (mm^3) of the tumor could be calculated. Relative tumor volume (RTV) was calculated from the measurement result (according to the formula: RTV=Vt/V0, wherein V0 is the tumor volume measured upon the grouping time of administration, and Vt is the tumor volume measured each time). The relative tumor proliferation rate T/C(%) was chosen as the index of evaluation of anti-tumor activity, by the formula: T/C(%)=(TRTV/CRTV)×100 TRTV: RTV of the treated group; CRTV: RTV of the negative control group
(§1) Human epidermoid squamous carcinoma A431 grafted to BALB/cA nude mouse is an animal model having high expression of EGFR (erbB-1), and human ovarian cancer SKOV-3 grafted to BALB/cA nude mouse is an animal model having high expression of erbB-2.

[6] = tested on: human epidermoid squamous cancer cell A431; experiment: Tumor-inhibitory effect on human epidermoid squamous cancer cell A431 grafted to a BALB/cA nude mouse; assay type: in vivo; conditions: for inhibitory effect on the tumor (in words): A431 grafted to BALB/cA nude mouse, high expression of EGFR (erbB-1), p-toluenesulfonate; for Tumor-inhibitory rate % / Weight of animals (g) (tumor-off) / Weight of tumor (g) x ± SD: 13 successive days, 23 days after grafting
Method: A well-developed solid tumor A431 was selected and incised into several uniform pieces with the size of 2-3 mm under sterile conditions, with one piece being grafted subcutaneously to the right armpit of each of the BALB/cA nude mice using a trocar. 7 days after the grafting, the mice were grouped randomly and were intragastrically administrated through mouth for 13 successive days. The long axis (a) and the short axis (b) of the tumors were measured with a vernier caliper every 4 days. According to the formula V=ab^2/2, the volume of the tumor (mm^3) could be calculated. The tested animals were neck-off killed 23 days after the grafting, and anatomized to obtain the tumors. The tumors were weighed, and the tumor inhibition rate was calculated.
as §1

[7] = Test on the drug absorption in SD rat, intravenous injection (iv); assay type: in vivo; conditions: male, 5 mg/kg, plasma
Method: Intravenous injection (iv): 4 healthy SD rats, male, weighted 200-250 g, were intravenously administered with p-toluenesulfonate of the compound of Example 1 (5 mg/kg). The blood samples were collected at 5 min, 15 min, 0.5 h, 1.5 h, 2.0 h, 3.0 h, 4.0 h, 5.0 h and 7.0 h after administration, which were then isolated to prepare the plasma. The concentrations of the drugs in the plasma were determined by means of liquid phase chromatography/tandem mass spectrometer and the concentration-time curve was obtained.

[8] = listed as p-toluenesulfonate of N-{-4-[3-chloro-4-(3-fluoro-benzyloxy)phenylamino]quinazol
[9] = 5 mg/kg iv once on the first day
[10] = 50 mg/kg ig once a day for 3 weeks
[11] = 100 mg/kg ig once a day for 3 weeks
[12] = 200 mg/kg ig once a day for 3 weeks

- light stability (in words) [1]: good light stability
- Purity (%) ([1]; day 0): 99.03%
- Purity (%) ([1]; day 10): 98.54%
- Purity (%) ([1]; day 30): 98.42%
- Purity (%) ([2]; day 0): 99.03%
- Purity (%) ([2]; day 10): 97.08%
- Purity (%) ([2]; day 30): 97.55%
- thermal stability (in words) [2]: good thermal stability
- absolute bioavailability [3]: 5.17%
- Tmax ([3]; po, 30 mg/kg): 2.25 h
- AUC(0-t) ([3]; po, 30 mg/kg, AUC0-t): 577 ng·h/mL
- Cmax ([3]; po, 30 mg/kg, Cmax): 161 ng/mL
- half-life ([3]; po, 30 mg/kg, T1/2): 76.2 min
- stability in highly humid surroundings (in words) [4]: quite stable
- Purity (%) ([4]; day 0): 99.03%
- Purity (%) ([4]; day 10): 98.27%
- Purity (%) ([4]; day 30): 98.08%
Structure (SMILES): C=CC(=O)Nc1ccc2ncnc(Nc3ccc(OCc4cccc(F)c4)c(Cl)c3)c2c1.Cc1ccc(S(=O)(=O)O)cc1 [Crystalline form C, N-{4-[3-chloro-4-(3-fluoro-benzyloxy)phenylamino]quinazolin-6-yl}-acrylamide p-toluenesulfonate]

- AUC(0-t) [7]: 1860 ng·h/mL
- Cmax [7]: 1740 ng/mL
- Tmax [7]: 4.98 min
- half-life [7]: 93 min
Structure (SMILES): C=CC(=O)Nc1ccc2ncnc(Nc3ccc(OCc4cccc(F)c4)c(Cl)c3)c2c1.Cc1ccc(S(=O)(=O)O)cc1 [p-toluene sulfonate, N-{4-[3-chloro-4-(3-fluoro-benzyloxy)phenylamino]quinazolin-6-yl}-acrylamide p-toluenesulfonate]
- inhibitory effect on the tumor (in words) [5, 8]: remarkable inhibitory effect on tumor growth
- inhibitory effect on the tumor (in words) ([6]; listed as p-toluenesulfonate of N-{-4-[3-chloro-4-(3-fluoro-benzyloxy)phenylamino]-quinazo): significant inhibitory effect on the tumor
- inhibitory effect on the tumor (in words) [6, 8]: remarkable inhibitory effect on tumor growth

Structure (SMILES): CO[C@@]12[C@H](COC(N)=O)C3=C(C(=O)C(C)=C(N)C3=O)N1C[C@@H]1N[C@@H]12 [MMC, Mitomycin, reference compound]
- RTV [5, 9]: 3.1 ± 0.5
- T/C (%) ([5]; 5 mg/kg iv once on the first day, T/C=(TRTV/CRTV)×100): 32.0%
- Volume of tumor (mm^3) V21 ([5]; 5 mg/kg iv once on the first day, after 3 weeks): 258 ± 77 mm^3
- Volume of tumor (mm^3) V0 [5, 9]: 83 ± 13 mm^3

- light stability (in words) [1]: excellent light stability
- Purity (%) ([1]; day 0): 99.26%
- Purity (%) ([1]; day 10): 99.26%
- Purity (%) ([1]; day 30): 99.24%
- Purity (%) ([2]; day 0): 99.26%
- Purity (%) ([2]; day 10): 99.21%
- Purity (%) ([2]; day 30): 99.11%
- thermal stability (in words) [2]: excellent thermal stability
- absolute bioavailability [3]: 8.76%
- AUC(0-t) ([3]; po, 30 mg/kg): 978 ng·h/mL
- Cmax ([3]; po, 30 mg/kg): 253 ng/mL
- T1/2 ([3]; po, 30 mg/kg): 1.23 h
- Tmax ([3]; po, 30 mg/kg): 1.25 h
- stability in highly humid surroundings (in words) [4]: very stable
- Purity (%) ([4]; day 0): 99.26%
- Purity (%) ([4]; day 10): 99.25%
- Purity (%) ([4]; day 30): 99.24%
Structure (SMILES): C=CC(=O)Nc1ccc2ncnc(Nc3ccc(OCc4cccc(F)c4)c(Cl)c3)c2c1.Cc1ccc(S(=O)(=O)O)cc1 [Crystalline form B, N-{4-[3-chloro-4-(3-fluoro-benzyloxy)phenylamino]quinazolin-6-yl}-acrylamide p-toluenesulfonate]

- light stability (in words) [1]: good light stability
- Purity (%) ([1]; day 0): 98.64%
- Purity (%) ([1]; day 10): 98.16%
- Purity (%) ([1]; day 30): 97.24%
- Purity (%) ([2]; day 0): 98.64%
- Purity (%) ([2]; day 10): 98.64%
- Purity (%) ([2]; day 30): 98.64%
- thermal stability (in words) [2]: excellent thermal stability
- bioavailability ([3]; absolute bioavailability): 8.75%
- AUC(0-t) ([3]; po, 30 mg/kg): 977 ng·h/mL
- Cmax ([3]; po, 30 mg/kg): 187 ng/mL
- T1/2 ([3]; po, 30 mg/kg): 1.49 h
- Tmax ([3]; po, 30 mg/kg): 2.83 h
- stability in highly humid surroundings (in words) [4]: very stable
- Purity (%) ([4]; day 0): 98.64%
- Purity (%) ([4]; day 10): 98.62%
- Purity (%) ([4]; day 30): 98.62%
- Weight of animals (g) (tumor-off) ([6]; 25 mg/kg ig): 21.58 ± 2.18 g
- Weight of animals (g) (tumor-off) ([6]; 50 mg/kg ig): 22.87 ± 3.96 g
- Weight of animals (g) (tumor-off) ([6]; 100 mg/kg ig): 22.13 ± 1.83 g
Structure (SMILES): C=CC(=O)Nc1ccc2ncnc(Nc3ccc(OCc4cccc(F)c4)c(Cl)c3)c2c1.Cc1ccc(S(=O)(=O)O)cc1 [Crystalline form A, N-{4-[3-chloro-4-(3-fluoro-benzyloxy)phenylamino]quinazolin-6-yl}-acrylamide p-toluenesulfonate]
- T/C (%) [5, 10]: 53.0%
- RTV [5, 10]: 5.1 ± 1.7
- Volume of tumor (mm^3) V21 ([5]; 50 mg/kg ig once a day, after administration for consecutive 3 weeks): 421 ± 89 mm^3
- Volume of tumor (mm^3) V0 ([5]; 50 mg/kg ig): 79 ± 28 mm^3
- T/C (%) [5, 11]: 45.0%
- RTV [5, 11]: 4.3 ± 1.3
- Volume of tumor (mm^3) V21 ([5]; 100 mg/kg ig once a day, after administration for consecutive 3 weeks): 345 ± 88 mm^3
- Volume of tumor (mm^3) V0 ([5]; 100 mg/kg ig): 87 ± 41 mm^3
- T/C (%) [5, 12]: 36.9%
- RTV [5, 12]: 3.5 ± 0.8
- Volume of tumor (mm^3) V21 ([5]; 200 mg/kg ig once a day, after administration for consecutive 3 weeks): 303 ± 72 mm^3
- Volume of tumor (mm^3) V0 ([5]; 200 mg/kg ig): 86 ± 13 mm^3
- inhibitory effect on the tumor (in words) [5]: significant inhibitory effect on the tumor
- Tumor-inhibitory rate % ([6]; 25 mg/kg ig): 29.99%
- Weight of tumor (g) x ± SD ([6]; 25 mg/kg ig): 0.79 ± 0.20 g
- Tumor-inhibitory rate % ([6]; 50 mg/kg ig): 38.67%
- Weight of tumor (g) x ± SD ([6]; 50 mg/kg ig): 0.69 ± 0.17 g
- Tumor-inhibitory rate % ([6]; 100 mg/kg ig): 43.63%
- Weight of tumor (g) x ± SD ([6]; 100 mg/kg ig): 0.64 ± 0.23 g
